In PubChem BioAssay (NCI):
Values after ≈ are worked out from the molar mass of the structure shown.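 Protocol summary: plate cells (96-well), add compound at 5 concentrations, incubate 48 h, interpolate endpoints linearly. Here, GI50 denotes the concentration required for 50% inhibition of growth. Definition used: TGI = concentration required for complete inhibition of growth.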

Key:
Assay in all cases: inhibition of tumour cell growth, NCI panel, 48 h
[1] = tested on: HCT-116 colon
[2] = tested on: OVCAR-3 ovarian
[3] = tested on: NCI-H460 lung
[4] = tested on: A549 NSCLC
[5] = tested on: COLO 205 colon
[6] = tested on: SR leukemia
[7] = tested on: SK-MEL-28 melanoma
[8] = tested on: TK-10 renal
[9] = tested on: HT29 colon
[10] = tested on: IGROV1 ovarian

Row | SMILES | TGI [1] | TGI [2] | TGI [3] | TGI [4] | TGI [5] | TGI [6] | TGI [7] | TGI [8] | TGI [9] | TGI [10] | GI50 [1] | GI50 [2] [µg/mL] | GI50 [3] [µg/mL] | GI50 [4] | GI50 [5] | GI50 [6] [µg/mL] | GI50 [7] [µg/mL] | GI50 [8] [µg/mL] | GI50 [9] [µg/mL] | GI50 [10] [µg/mL]
1 | CCP(=O)(CC)C(Cl)Cl | > 100 µM | > 100 µM | > 100 µM | > 100 µM | > 100 µM | > 100 µM | > 100 µM | > 100 µM | > 100 µM | > 100 µM |  |  |  |  |  |  |  |  |  | 
2 | CC(=O)Nc1ccc(C(=O)NN2C(=O)C(Cl)/C2=C/c2ccco2)cc1 (stereo not drawn) | > 100 µM | > 100 µM | > 100 µM | > 100 µM | > 100 µM | > 100 µM | > 100 µM | > 100 µM | > 100 µM | > 100 µM |  |  |  |  |  |  |  |  |  | 
3 | O=C1CC2CC3OC3[C@H]3c4cc5c(cc4C(=O)N1C23)OCO5 (stereo partly drawn) | > 100 µM | > 100 µM | > 100 µM | > 100 µM | > 100 µM | > 100 µM | > 100 µM | > 100 µM | > 100 µM | > 100 µM |  |  |  |  |  |  |  |  |  | 
4 | COc1cc(C(C)O)c(S(=O)(=O)CC(C)O)nn1 (stereo not drawn) | > 100 µM | > 100 µM | > 100 µM | > 100 µM | > 100 µM | > 100 µM | > 100 µM | > 100 µM | > 100 µM | > 100 µM |  |  |  |  |  |  |  |  |  | 
5 | CC(=O)c1c(C)nc(SSc2nc(C)c(C(C)=O)c(-c3ccc(Cl)cc3)c2C#N)c(C#N)c1-c1ccc(Cl)cc1 | > 150 µg/mL | > 150 µg/mL | > 150 µg/mL | > 150 µg/mL | > 150 µg/mL | > 150 µg/mL | > 150 µg/mL | > 150 µg/mL | > 150 µg/mL | > 150 µg/mL | 94.4 µg/mL | 59.9 (≈ 99.2 µM) | 136 (≈ 225 µM) | 73 µg/mL | > 150 µg/mL | > 150 | 103 (≈ 171 µM) | 102 (≈ 170 µM) | > 150 | 88.1 (≈ 146 µM)
6 | O=C(N/N=C/c1cc(Cl)cc(Cl)c1[O-])c1ccccc1O.O=C(N/N=C/c1cc(Cl)cc(Cl)c1[O-])c1ccccc1O.[Co+2] | 14 µM | 0.969 µM | 11.1 µM | 13.2 µM | 18.3 µM | 0.532 µM | 12.1 µM | 12 µM | 17.4 µM | 6.97 µM | 552 nM |  |  | 532 nM | 3.8 µM |  |  |  |  | 
